Test results from patent publication US8435939B2, “Polypeptide anti-HIV agent containing the same” (priority 2000, dated 2013).
Where a SMILES comes first, the peptide text is derived from it. Bridges are numbered along the chain shown (N, C = ends). [ ]: non-standard residue; d: D form. 2Nal = N[C@@H](Cc1ccc2ccccc2c1)C(=O)O; Cit = NC(=O)NCCC[C@H](N)C(=O)O

How the values were obtained:
Assay type in all cases: cell-based
[1] = Cytotoxicity Test II: human PBMC, trypan blue dyeing method; settings: human PBMC, trypan blue dyeing method; read-out: CC50 (Test II), 50% survival concentration
[2] = tested on: human peripheral blood mononuclear cells (PBMC); assay: as above; settings: selective index, PBMC CC50 over anti-HIV EC50
[3] = tested on: virus-uninfected MT-4 cells; assay: Cytotoxicity Test I: virus-uninfected MT-4 cells, MTT method; settings: for SI: CC50 (Test I)/EC50: selective index, MT-4 CC50 over anti-HIV EC50; for cytotoxicity in words, compared with conventional T134/T140: conclusion drawn from Table 3
Protocol: (§1) HIV-1 (IIIB) strain obtained from MOLT/HIV-1 (IIIB) cell previously infected by HIV-1 was used. The polypeptide of the present invention was added to MT-4 CD4^+ T cells infected by HIV in various kinds of concentrations, and a number of living cells after culturing at 37° C. for 5 days was determined by using a 3′-(4,5-dimethylthiazol-2-yl)-2,5-diphenyltetrazolinium bromide (MTT) method. Anti-HIV activity is shown by a concentration (EC50 value), where MT-4 cell death by HIV infection is inhibited by 50%. Cytotoxicity of the peptide according to the present invention was shown by a 50% survival concentration (Test I: CC50 value) by culturing virus-uninfected MT-4 cells with the polypeptide according to the present invention in various concentrations, and determining a number of living cells by the MTT method. Moreover, a number of living cells of human peripheral blood mononuclear cells (monocyte) (PBMC) was determined by trypan blue dyeing method, and shown by a 50% survival concentration (Test II: CC50 value). Respective ratios of the CC50 value and the EC50 value were shown as a selective index (SI). Obtained values were summarized in Table 3 using the conventionally known polypeptides T134 and T140, and an anti-HIV compound: 3′-azido-2′,3′-dideoxythymidine (AZT) used as a medicine as a control anti-HIV agent.

[4] = as above; settings: virus-uninfected MT-4 cells, MTT method, read-out: CC50 (Test I), 50% survival concentration
Protocol: as §1

HIV-1 (IIIB) strain = assay: Anti-HIV activity: inhibition of MT-4 cell death by HIV infection (MTT method); settings: for EC50: MT-4 CD4+ T cells infected by HIV-1 (IIIB), 37° C., 5 days, MTT, average of at least three measurements, read-out: EC50 (concentration where MT-4 cell death by HIV infection is inhibited by 50%)
Protocol: as §1

[5] = human, MT-4 cells (virus-uninfected)

SMILES	CC50 [1] [µM]	SI: CC50 (Test II)/EC50 [2]	SI: CC50 (Test I)/EC50 [3]	CC50 [4, 5] [µM]	EC50 (HIV-1 (IIIB) strain) [µM]	CC50 [4] [µM]	cytotoxicity in words, compared with conventional T134/T140 [3]	anti-HIV activity in words, compared with T140 (HIV-1 (IIIB) strain; conclusion drawn from Table 3)
NCCCC[C@@H]1NC(=O)[C@H](CCCN=C(N)N)NC(=O)[C@H](Cc2ccc(O)cc2)NC(=O)[C@@H](NC(=O)[C@H](Cc2c[nH]c3ccccc23)NC(=O)[C@H](CCCN=C(N)N)NC(=O)[C@@H](N)CCCN=C(N)N)CSSC[C@@H](C(=O)N[C@@H](CCCN=C(N)N)C(=O)O)NC(=O)[C@H](CCCNC(N)=O)NC(=O)[C@H](CCCN=C(N)N)NC(=O)[C@H](Cc2ccc(O)cc2)NC(=O)[C@@H]2CCCN2C(=O)[C@@H](CCCCN)NC1=O [Compound T134, H-Arg-Arg-Trp-Cys-Tyr-Arg-Lys-DLys-Pro-Tyr-Arg-Cit-Cys-Arg-OH, reference compound] (H-RRWCYRK[dK]PYR[Cit]CR-OH; disulfide 4-13)	190	23000	>>120	> 1				
C[C@H](N)C(=O)N[C@@H](CCCNC(=N)N)C(=O)N[C@@H](Cc1ccc2ccccc2c1)C(=O)N[C@H]1CSSC[C@@H](C(=O)N[C@@H](CCCNC(=N)N)C(=O)O)NC(=O)[C@H](CCCNC(N)=O)NC(=O)[C@H](CCCNC(=N)N)NC(=O)[C@H](Cc2ccc(O)cc2)NC(=O)[C@@H]2CCCN2C(=O)[C@@H](CCCCN)NC(=O)[C@H](CCCCN)NC(=O)[C@H](CCCNC(=N)N)NC(=O)[C@H](Cc2ccc(O)cc2)NC1=O [TA14001, H-Arg-Arg-Nal-Cys-Tyr-Arg-Lys-DLys-Pro-Tyr-Arg-Cit-Cys-Arg-OH] (H-AR[2Nal]CYRK[dK]PYR[Cit]CR-OH; disulfide 4-13)			>750	> 40	0.056			
C[C@@H]1NC(=O)[C@@H](CCCCN)NC(=O)[C@H](CCCCN)NC(=O)[C@H](CCCN=C(N)N)NC(=O)[C@H](Cc2ccc(O)cc2)NC(=O)[C@@H](NC(=O)[C@H](Cc2ccc3ccccc3c2)NC(=O)[C@H](CCCN=C(N)N)NC(=O)[C@@H](N)CCCN=C(N)N)CSSC[C@@H](C(=O)N[C@@H](CCCN=C(N)N)C(=O)O)NC(=O)[C@H](CCCNC(N)=O)NC(=O)[C@H](CCCN=C(N)N)NC(=O)[C@H](Cc2ccc(O)cc2)NC1=O [TA14008, H-Arg-Arg-Nal-Cys-Tyr-Arg-Lys-DLys-Ala-Tyr-Arg-Cit-Cys-Arg-OH] (H-RR[2Nal]CYRK[dK]AYR[Cit]CR-OH; disulfide 4-13)			>4700			> 80		
C[C@@H]1NC(=O)[C@@H]2CCCN2C(=O)[C@@H](CCCCN)NC(=O)[C@H](CCCCN)NC(=O)[C@H](CCCN=C(N)N)NC(=O)[C@H](Cc2ccc(O)cc2)NC(=O)[C@@H](NC(=O)[C@H](Cc2ccc3ccccc3c2)NC(=O)[C@H](CCCN=C(N)N)NC(=O)[C@@H](N)CCCN=C(N)N)CSSC[C@@H](C(=O)N[C@@H](CCCN=C(N)N)C(=O)O)NC(=O)[C@H](CCCNC(N)=O)NC(=O)[C@H](CCCN=C(N)N)NC1=O [TA14009, H-Arg-Arg-Nal-Cys-Tyr-Arg-Lys-DLys-Pro-Ala-Arg-Cit-Cys-Arg-OH] (H-RR[2Nal]CYRK[dK]PAR[Cit]CR-OH; disulfide 4-13)			>4500	> 80				
C[C@@H]1NC(=O)[C@H](Cc2ccc(O)cc2)NC(=O)[C@@H]2CCCN2C(=O)[C@@H](CCCCN)NC(=O)[C@H](CCCCN)NC(=O)[C@H](CCCNC(=N)N)NC(=O)[C@H](Cc2ccc(O)cc2)NC(=O)[C@@H](NC(=O)[C@H](Cc2ccc3ccccc3c2)NC(=O)[C@H](CCCNC(=N)N)NC(=O)[C@@H](N)CCCNC(=N)N)CSSC[C@@H](C(=O)N[C@@H](CCCNC(=N)N)C(=O)O)NC(=O)[C@H](CCCNC(N)=O)NC1=O [TA14010, H-Arg-Arg-Nal-Cys-Tyr-Arg-Lys-DLys-Pro-Tyr-Ala-Cit-Cys-Arg-OH] (H-RR[2Nal]CYRK[dK]PYA[Cit]CR-OH; disulfide 4-13)			>4800	> 80	0.018			
NCCCC[C@@H]1NC(=O)[C@H](CCCNC(N)=O)NC(=O)[C@H](Cc2ccc(O)cc2)NC(=O)[C@@H](NC(=O)[C@H](Cc2ccc3ccccc3c2)NC(=O)[C@H](CCCN=C(N)N)NC(=O)[C@@H](N)CCCN=C(N)N)CSSC[C@@H](C(=O)N[C@@H](CCCN=C(N)N)C(=O)O)NC(=O)[C@H](CCCNC(N)=O)NC(=O)[C@H](CCCN=C(N)N)NC(=O)[C@H](Cc2ccc(O)cc2)NC(=O)[C@@H]2CCCN2C(=O)[C@@H](CCCCN)NC1=O [TC14003, H-Arg-Arg-Nal-Cys-Tyr-Cit-Lys-DLys-Pro-Tyr-Arg-Cit-Cys-Arg-OH] (H-RR[2Nal]CY[Cit]K[dK]PYR[Cit]CR-OH; disulfide 4-13)	310	160000	>29000	> 80			cytotoxicity is markedly lowered	
N=C(N)NCCC[C@H](NC(=O)[C@@H]1CSSC[C@H](NC(=O)[C@H](Cc2ccc3ccccc3c2)NC(=O)[C@H](CCCNC(=N)N)NC(=O)[C@@H](N)CCCNC(=N)N)C(=O)N[C@@H](Cc2ccc(O)cc2)C(=O)N[C@@H](CCCNC(N)=O)C(=O)N[C@@H](CCCCN)C(=O)N[C@H](CCCNC(N)=O)C(=O)N2CCC[C@H]2C(=O)N[C@@H](Cc2ccc(O)cc2)C(=O)N[C@@H](CCCNC(=N)N)C(=O)N[C@@H](CCCNC(N)=O)C(=O)N1)C(=O)O [TC14011, H-Arg-Arg-Nal-Cys-Tyr-Cit-Lys-DCit-Pro-Tyr-Arg-Cit-Cys-Arg-OH]			>200000	> 100	0.0005		lowered cytotoxicity	
N=C(N)NCCC[C@H](NC(=O)[C@@H]1CSSC[C@H](NC(=O)[C@H](Cc2ccc3ccccc3c2)NC(=O)[C@H](CCCNC(=N)N)NC(=O)[C@@H](N)CCCNC(=N)N)C(=O)N[C@@H](Cc2ccc(O)cc2)C(=O)N[C@@H](CCCNC(N)=O)C(=O)N[C@@H](CCCCN)C(=O)N[C@H](CCCNC(N)=O)C(=O)N2CCC[C@H]2C(=O)N[C@@H](Cc2ccc(O)cc2)C(=O)N[C@@H](CCCNC(=N)N)C(=O)N[C@@H](CCCNC(N)=O)C(=O)N1)C(N)=O [TC14012, H-Arg-Arg-NaI-Cys-Tyr-Cit-Lys-DCit-Pro-Tyr-Arg-Cit-Cys-Arg-NH2]			>250000	> 100	0.0004		lowered cytotoxicity	higher anti-HIV activity
N=C(N)NCCC[C@H](NC(=O)[C@@H]1CSSC[C@H](NC(=O)[C@H](Cc2ccc3ccccc3c2)NC(=O)[C@H](CCCNC(=N)N)NC(=O)[C@@H](N)CCCNC(N)=O)C(=O)N[C@@H](Cc2ccc(O)cc2)C(=O)N[C@@H](CCCNC(=N)N)C(=O)N[C@@H](CCCCN)C(=O)N[C@H](CCCNC(N)=O)C(=O)N2CCC[C@H]2C(=O)N[C@@H](Cc2ccc(O)cc2)C(=O)N[C@@H](CCCNC(=N)N)C(=O)N[C@@H](CCCNC(N)=O)C(=O)N1)C(N)=O [TC14018, H-Cit-Arg-Nal-Cys-Tyr-Arg-Lys-DCit-Pro-Tyr-Arg-Cit-Cys-Arg-NH2]			>83000	> 100	0.0012		lowered cytotoxicity	
N=C(N)NCCC[C@H](NC(=O)[C@@H]1CSSC[C@H](NC(=O)[C@H](Cc2ccc3ccccc3c2)NC(=O)[C@H](CCCNC(=N)N)NC(=O)[C@@H](N)CCCNC(=N)N)C(=O)N[C@@H](Cc2ccc(O)cc2)C(=O)N[C@@H](CCCNC(N)=O)C(=O)N[C@@H](CCCCN)C(=O)N[C@H](CCCCN)C(=O)N2CCC[C@H]2C(=O)N[C@@H](Cc2ccc(O)cc2)C(=O)N[C@@H](CCCNC(=N)N)C(=O)N[C@@H](CCCNC(N)=O)C(=O)N1)C(N)=O [TN14003, H-Arg-Arg-Nal-Cys-Tyr-Cit-Lys-DLys-Pro-Tyr-Arg-Cit-Cys-Arg-NH2] (H-RR[2Nal]CY[Cit]K[dK]PYR[Cit]CR-NH2; disulfide 4-13 (inferred))			>166000	> 100	0.0006		lowered cytotoxicity	
N=C(N)NCCC[C@H](NC(=O)[C@@H]1CSSC[C@H](NC(=O)[C@H](Cc2ccc3ccccc3c2)NC(=O)[C@H](CCCNC(=N)N)NC(=O)[C@@H](N)CCCNC(=N)N)C(=O)N[C@@H](Cc2ccc(O)cc2)C(=O)N[C@@H](CCCNC(=N)N)C(=O)N[C@@H](CCCCN)C(=O)N[C@H](CCCNC(N)=O)C(=O)N2CCC[C@H]2C(=O)N[C@@H](Cc2ccc(O)cc2)C(=O)N[C@@H](CCCNC(=N)N)C(=O)N[C@@H](CCCNC(N)=O)C(=O)N1)C(N)=O [TN14005, H-Arg-Arg-Nal-Cys-Tyr-Arg-Lys-DCit-Pro-Tyr-Arg-Cit-Cys-Arg-NH2]			>21000	> 100	0.0046		cytotoxicity is markedly lowered	
